{"source": "patent US20230390315A1", "about": "“COMPOSITIONS AND METHODS FOR TREATING ISCHEMIC CONDITIONS” (The Regents of the University of California, priority 2020, published 2023)", "key": {"[1]": {"system": "α-glucosidase", "test": "α-glucosidase activity assay", "format": "biochemical, Saccharomyces cerevisiae", "settings": "up to 2 mM", "description": "a-mannosidase activity was measured using substrate p-nitrophenyl α-mannopyranoside (1 mM). Enzyme from Jack Bean ([…]) (final concentration of 0.077 U) was incubated at 37° C. in a final volume of 50 μl of 50 mM potassium phosphate buffer, pH 7.5. α-glucosidase was assayed with substrate p-nitrophenyl α-glucoside (7 mM). Enzyme from Saccharomyces cerevisiae-type 1 (Sigma, G5003) (final concentration of 0.1 U) was incubated at 37° C. in a final volume of 50 μl of PBS, pH 7.5. β-Glucosidase was assayed with substrate 4-nitrophenyl β-D-glucopyranoside (Roche). Enzyme from almond (Sigma, G0395) (final concentration of 0.002 U) was incubated at 37° C. in a final volume of 50 μl of PBS, pH 7.5 containing 1% SDS. The incubation was stopped by addition of an equal volume of acid-based stop solution (R&D systems, 895032). Enzymatic activity was measured at 405 nm. α-glucosidase from Saccharomyces cerevisiae type I ([…]) with p-nitrophenyl α-D-glucopyranoside (Sigma, N1377) as the substrate."}, "[2]": {"system": "JNK/c-Jun", "test": "Western blot of JNK pathway activation in BCECs", "format": "cell-based, bovine", "settings": "media without growth factors", "description": "(§1) Cells were allowed to reach 80% confluency in 12-well plates. […] At various time points, plates were taken out of the incubator and kept on ice. Cell monolayers were first washed once with ice-cold PBS before lysis with 250 μl of Pierce RIPA buffer (ThermoFisher Scientific, Rockford, IL) or use 50 mM Tris-HCl (pH 7.6), 150 mM NaCl, 10% Glycerol, 1% NP-40 containing protease/Phosphatase inhibitor cocktail (100×) (Cell signaling, #5872). Lysates were collected and mixed with 4×Bolt LDS Sample Buffer (Novex, Carlsbad, CA) in the presence of Halt protease inhibitors and phosphatase inhibitor cocktail (ThermoFisher scientific, #NP0007). The samples were subjected to SDS-PAGE (Bolt 4-12% Bis-Tris Plus, Invitrogen) using Bolt MES SDS running buffer or NuPAGE 3-8% Tris-Acetate gel using Tris-Acetate SDS running buffer (Novex). HUVECs (passage 6-8) were plated in EBM-2 basal medium (Lonza) with 0.2% FBS. […] Equal amounts of protein lysates were analyzed by SDS-PAGE and blotted with the indicated antibodies. Proteins were transferred using Tris-Glycine buffer with 20% Methanol (Proteonomics grade) (Apex BioResearch Products). Membranes were first incubated with 5% milk in TBST, pH 7.6 (TEKnova, Hollister, CA), followed by blotting with primary and secondary antibodies. ECL anti-rabbit IgG, horseradish peroxidase linked whole antibody from donkey or sheep anti-mouse were obtained from GE Healthcare (UK limited). SuperSignal West Dura Extended Duration substrate was from ThermoFisher Scientific. In some cases, the same PVDF membranes were stripped by 8-min incubation in the Restore Plus Western Blot Stripping Buffer (ThermoFisher Scientific) to show total specific protein expression, followed by second stripping for β-actin expression."}, "[3]": {"system": "Bip, CHOP and ATF-6", "test": "Western blot of UPR responsive proteins in BCECs", "format": "cell-based, bovine", "description": "as §1, with “˜80%” for “80%”"}, "[4]": {"system": "ischemic hindlimb", "test": "Hindlimb ischemia model and blood flow", "format": "in vivo, mouse", "settings": "for blood perfusion ratio, of sham-treatment limbs: 3 weeks; for blood vessel density compared with H2O-treated control (CD31): 3 weeks post-ligation; for blood flow recovery (perfusion ratio): one week after surgery, 20% ManN oral or 1 mg/ml Kif ip every other day", "description": "C57BL/6 male mice (6-8 weeks old) were subjected to unilateral hindlimb surgery under anesthesia with ketamine/xylazine cocktail. Briefly, the left femoral artery was separated from the vein and nerve, ligated proximally, and excised. The right hindlimb served as control. Blood flow was measured by using a laser Doppler perfusion imager (PeriScan PSI; Perimed). Ischemic and nonischemic limb perfusion was measured before and after surgery and 1, 2 and 3 weeks later. After surgery, mice were randomly allocated to different groups (8 mice for each group). 200 μl of 20% ManN was orally administrated every other day from 3rd day after surgery. 200 μl of 1 mg/ml Kif was administrated through ip injection every other day. H2O was used as a vehicle control. The final blood flow values were expressed as the ratio of ischemic to nonischemic hindlimb perfusion from the same animal. Quantification of blood vessel area was carried out as described."}, "[5]": {"system": "ERK, AKT, mTOR, CREB, ACC and eNOS", "test": "Western blot of signal transduction pathways in BCECs", "format": "cell-based, bovine", "description": "as §1, with “˜80%” for “80%”"}}, "data": [{"smiles": "N[C@H](C=O)[C@@H](O)[C@H](O)[C@H](O)CO", "note": "[ManN, 2-Amino-2-deoxy-D-mannose]", "values": [{"measurement": "effect on α-glucosidase", "setting": "[1]", "value": "No effect"}, {"measurement": "activation of JNK pathway (JNK and downstream c-Jun)", "setting": "[2]", "value": "significantly activated"}, {"measurement": "synergy between ManN and VEGF in promoting Bip or CHOP expression", "setting": "[3]", "value": "No synergy"}, {"measurement": "time at which accumulation of Bip is evident", "setting": "[3]", "value": 24, "unit": "h"}, {"measurement": "time of CHOP induction", "setting": "[3]; dose-dependent", "value": "about 6 hours"}, {"measurement": "Bip expression", "setting": "[3]; growing cells deprived of growth factor supply", "value": "significantly turn on Bip expression in a concentration-dependent manner"}, {"measurement": "blood perfusion ratio, of sham-treatment limbs", "setting": "[4]", "value": "~50", "unit": "%"}, {"measurement": "blood vessel density compared with H2O-treated control (CD31)", "setting": "[4]", "value": 2.3, "unit": "times"}, {"measurement": "blood flow recovery (perfusion ratio)", "setting": "[4]", "value": "about 40%"}, {"measurement": "activation of ERK, AKT and CREB with both ManN and VEGF compared to ManN or VEGF alone", "setting": "[5]", "value": "enhancement in activation"}, {"measurement": "activation of ERK, AKT, mTOR and CREB", "setting": "[5]; 40 uM", "value": "activated"}, {"measurement": "activation of eNOS and ACC", "setting": "[5]; 40 uM", "value": "significantly activated"}, {"measurement": "time to activation of eNOS and ACC", "setting": "[5]; 40 uM", "value": "10 to 30", "unit": "min"}, {"measurement": "time to stimulation of ERK, AKT and CREB after adding ManN", "setting": "[5]; 40 uM", "value": "10 to 30", "unit": "min"}]}, {"smiles": "O=C1N[C@@H]2[C@@H](O)[C@@H](O)[C@H](O)[C@@H](CO)N2C1=O", "note": "[Kif, Kifunensine, reference compound]", "values": [{"measurement": "activation of JNK pathway (JNK and downstream c-Jun)", "setting": "[2]", "value": "able to activate the JNK pathway"}, {"measurement": "Bip expression with glycosylation inhibitors", "setting": "[3]; media without growth factors for 24 hours", "value": "dose-dependent induction of Bip expression"}, {"measurement": "blood perfusion ratio, of sham-treatment limbs", "setting": "[4]", "value": "~50", "unit": "%"}, {"measurement": "blood vessel density compared with H2O-treated control (CD31)", "setting": "[4]", "value": 1.8, "unit": "times"}, {"measurement": "blood flow recovery (perfusion ratio)", "setting": "[4]", "value": "~47", "unit": "%"}, {"measurement": "activation of ERK and AKT", "setting": "[5]; 40 uM, BCECs", "value": "significantly activate"}]}]}
